Results reported in patent publication US10959998B2, “Pharmaceutical use and pharmaceutical composition of pyrroloquinoline quinine, its derivatives and/or its salts” (priority 2015, dated 2021).

Assays:
[1] = tested on: ectopic endometrial stromal cells; assay: MTT cell proliferation of ectopic endometrial stromal cells; type: cell-based, human
Experimental: Endometrial tissues were surgically isolated from patients with chocolate cyst of ovary, washed 2 to 3 times with PBS supplemented with antibiotics in ultra-clean cabinet, and cut into tiny pieces (about 1 mm^3 in size) with aseptic scissors. The tissues were digested with 1 mg/ml collagenase type I for 30 to 90 min at 37° C., and continually digested with Dnase I (final concentration of 15 U/ml, 2% Dnase I) for another 30 min. The digested tissues were filtered thorough 60-mesh stainless steel filter cell strainer to remove the undigested cell tissues, and were further filtered with 200- or 400-mesh strainer. The filtered solution was centrifuged at 1000 rpm for 5 min. After removing the supernatants, the cells were washed once with culture medium compounded by DMEM/F12 (1:1 v/v) and 10% fetal bovine serum, re-suspended in the culture medium, and seeded in 6-well tissue culture plate or T25 tissue culture flasks with an appropriate density. After 24 hours incubation, the culture medium was changed to remove the non-adherent blood cells, endothelial cells, macrophages and other miscellaneous cells. After primary human endometrial stromal cells were grown to reach 90% confluence, the cells were digested with 0.25% trypsin for 4 to 6 min, and then subcultured with a split ratio of 1:2 to 1:3. Vimentin which expresses specifically in stromal cells was detected by immuno-fluorescence to measure the cell purity. The cells of purity >95% were used in the following experiments. Primary ectopic endometrial stromal cells of human were subcultured and the subcultured cells of the 3th to 6th passages were chosen as experimental subjects. The cells in logarithmic growth phase were […] and incubated in the cell culture plate at a density of 50%˜60% (i.e. 2×10^4 cells/well). After growing adherent on the wall for 24 hours, the cultured cells were divided into groups and each group was given different doses of PQQ. 20 μL MTT (5 mg/ml in PBS, pH=7.4) was added to each well at indicated time points. The cells were incubated in an incubator at 37° C. in a 5% CO2 atmosphere for 4 h. At the end of incubation, the culture supernatant in each cell was carefully aspirated away. 150 μL DMSO was added to each well. Then the wells were shaken with Orbital shaker for 10 min. The absorbance of each cell was detected at wavelength 490 nm. Finally, the cell proliferation curve was drawn. Primary ectopic endometrial stromal cells were cultured and the subcultured cells of the 3th to 6th passage were chosen as experimental subjects. The cells in logarithmic growth phase were […] and incubated in the cell culture plate at a of 50%˜60% (e.g. 2×10^4 cells/well). The cells grew adhering to the wall for 24 hours before being treated with drugs. The cells were divided into groups and each group was given different dose of PQQ. At indicated time point, 20 μL […] (5 mg/ml in PBS, pH=7.4) was added to every well. The cells were then incubated in an incubator at 37° C. in a 5% CO2 atmosphere for 4 h. After terminating incubation, the culture supernatant in each cell was carefully aspirated away, but formazan crystals should not be aspirated away in any case. 150 μL DMSO was added to each well respectively. All the wells were shaken with Orbital shaker for 10 min to make the crystals adequately solubilized. The absorbance of each cell was detected at wavelength 490 nm. Finally, the cell proliferation curve was drawn.

[2] = tested on: hydrogen peroxide (H2O2) in endometrial stromal cells; assay: Determination of hydrogen peroxide (H2O2) content; type: cell-based, human; conditions: 18 h
Experimental: Superoxide anion (O2.^−) assay kit was purchased from Nanjing Jiancheng Bioengineering Insitute; Hydroxyl free radical assay kit was purchased from Shanghai Xinyu Biological Technology Co., Ltd., Hydrogen Peroxide Assay Kit was purchased from Beyotime Biotechnology Research Institute. The cells were seeded in 6-well cell culture plates and incubated for 24 h after the cells adhered to the plate. Three different concentrations PQQ (30 nm, 300 nm and 3 μm) were added to the cultures respectively. After additional 18 h incubation, the cells were lysed using the lysis buffer contained in reagent kit, centrifuged at 12000×g for 5 min at 4° C. 50 μL of sample supernatant was mixed with 100 μL detection solution, rested 30 min at room temperature. The optical density at wavelength 560 nm was measured.

[3] = tested on: superoxide anion radical (O2.-) in endometrial stromal cells; assay: Determination of superoxide anion (O2.-) content; type: cell-based, human; conditions: 18 h
Experimental: Superoxide anion (O2.^−) assay kit was purchased from Nanjing Jiancheng Bioengineering Insitute; Hydroxyl free radical assay kit was purchased from Shanghai Xinyu Biological Technology Co., Ltd., Hydrogen Peroxide Assay Kit was purchased from Beyotime Biotechnology Research Institute. The cells were cultured in 96-well cell culture plates for 24 h after the cells adhered to the plate. Three different concentrations PQQ (30 nm, 300 nm and 3 um) were added to the culture medium respectively. After additional 18 h incubation, the culture medium was discarded, and fresh culture medium supplemented with NBT (a final concentration of 1 mg/mL) was added to the cells. The cells were continually cultured for another 1 h at 37° C. The cells were fixed with 100% methanol, and naturally dried. 120 μL KOH (2 mol/L) and 140 μL DMSO were added to the cells. The optical density at wavelength 570 nm was measured.

ectopic endometrial foci = assay: Endometriosis rat model, weight of transplanted foci; type: in vivo, SD rats
[4] = tested on: endometrial stromal cells; assay: Transwell/matrigel invasion assay; type: cell-based, human; conditions: 48 h
Experimental: 500 μL culture medium containing 10% FBS was added into each wells in a 24-well plate. Transwell chambers were treated with 0.3 mg/ml FN diluted by serum free 1640 culture medium (BD company). The cells were seeded (5×10^4 cells/chamber) in the transwell up-chamber, in which 100 μL media were kept finally. The cells were cultured in an incubator at 37° C. in an air atmosphere containing 5% CO2 for the specified time. The chambers were taken out, stained with 0.1% crystal violet, and were photographed. Crystal violet on the membrane was dissolved with 300 μL of 33% Glacial acetic acid. The optical absorption was measured at wavelength 573 nm. On the ice, 100 μL matrigel was taken in with pre-chilled micropipette, transferred into 300 ul pre-chilled serum free medium. The mixture solution was thoroughly mixed to achieve uniform. 25 ul of the previous diluted matrigel was put into transwell up-chamber, covering the whole carbon ester membrane. The transwell was incubated at 37° C., 30 min for Matrigel gelling. The rest treatment was the same as that in Transwell assay.

O=C(O)c1cc(C(=O)O)c2c(n1)C(=O)C(=O)c1cc(C(=O)O)[nH]c1-2 [PQQ, pyrroloquinoline quinone]
cell proliferation compared with the control group ([1]; PQQ 3 um, from 48 h after drug treatment, p<0.01): significantly inhibit cell proliferation | cell proliferation compared with the control group ([1]; PQQ 30 nm, p>0.05): a certain inhibitory effect, but not significant | cell proliferation compared with the control group ([1]; PQQ 300 nm, from 48 h after drug treatment, p<0.01): significantly inhibit cell proliferation | relative content of hydrogen peroxide (H2O2) ([2]; PQQ 300 nM): significantly declined | relative content of hydrogen peroxide (H2O2) ([2]; PQQ 3 uM): significantly declined | relative content of superoxide anion radical (O2.-) ([3]; PQQ 300 nM): significantly declined | relative content of superoxide anion radical (O2.-) ([3]; PQQ 3 uM): significantly declined | weight of ectopic endometrial foci compared with the control group (ectopic endometrial foci; Example 5, rats, after 4 weeks treatment): evidently lower than that from the control group | weight of cysts after treatment (mg) Mean ± SD (ectopic endometrial foci; Example 5, rats, water feeding 4 week, PQQ 1 mg/kg, NAC 10 mg/kg, Resveratro 10 mg/kg, n=9): 71.2 ± 23.2 mg | weight of ectopic cys after treatment (mg) Mean ± SD (ectopic endometrial foci; Example 7, rats, 4 weeks in drinking water, PQQ (disodium salt) 1 mg/kg/day, NAC 10 mg/kg/day, P+N (H) 1+10, P+N (L) 0.2+5 mg/kg/day, n=12): 69.5 ± 12.7 mg | weight of ectopic cyst compared with model control group (ectopic endometrial foci; Example 7, rats, after 4 weeks treatment, PQQ as disodium salt): evidently lower than that in the model control group | inhibitory effect on cell invasion compared to the control group ([4]; 300 nM PQQ, statistically meaningful): definite inhibitory effect | reduction of invasion ability of endometrial stromal cells ([4]; 3 μM PQQ): 35% | inhibitory effect on cell invasion compared to the control group ([4]; PQQ): not obvious
